Data on 1 compound can be found in patent US9238020B2, “Compositions comprising enzyme-cleavable phenol-modified tapentadol prodrug” (priority 2010, dated 2016).

Series [1] addresses T1, trypsin (Bos taurus, UniProt P00760).
T1 construct: purchased Sigma-Aldrich T8003; host or cells: bovine pancreas
T1 sequence (P00760 24-246): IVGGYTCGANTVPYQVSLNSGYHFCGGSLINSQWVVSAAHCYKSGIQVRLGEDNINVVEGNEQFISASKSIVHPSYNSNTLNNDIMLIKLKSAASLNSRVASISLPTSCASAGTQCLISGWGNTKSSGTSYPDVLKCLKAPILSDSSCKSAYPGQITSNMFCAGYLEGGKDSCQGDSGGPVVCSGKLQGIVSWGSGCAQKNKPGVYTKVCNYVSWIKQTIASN
Nature of the series: In vitro trypsin conversion of prodrug to tapentadol and inhibition thereof by Compound 109. It counts as biochemical, bovine. The following applies: bovine, trypsin from bovine pancreas, pH 8, with Compound 109 (trypsin inhibitor); Table 8; 4815 BAEE U trypsin/mL, Compound 109 40 μM; read-out: Pro-drug trypsin half-life, Average ± sd (converted). The protocol: (§1) Compound TP-1 was incubated with trypsin from bovine pancreas (Catalog No. T8003, Type I, ˜10,000 BAEE units/mg protein, Sigma-Aldrich). Specifically, the reactions included 0.761 nM of Compound TP-1•2HCl, 22.5 mM calcium chloride, 40 to 172 mM Tris pH 8 and 0.25% DMSO with the BAEE units of trypsin indicated in Table 4. The reactions were conducted at 37° C. for 24 hr. Samples were collected at specified time points, transferred into 0.5% formic acid in acetonitrile to stop trypsin activity and stored at less than −70° C. until analysis by LC-MS/MS.
(§2) Compound TP-1 was also incubated in the presence of 2 micromolar (μM) trypsin inhibitor Compound 109. In that case, Compound TP-1 was added 5 min after the other incubation components. Other reaction and sample treatment conditions were as described above.
(§3) Table 4 indicates the results of exposure of Compound TP-1 to trypsin in the absence or presence of trypsin inhibitor. The results are expressed as half-life of prodrug when exposed to trypsin (i.e., Prodrug trypsin half-life) in hours and rate of tapentadol (TP) formation in umol/h/BAEE U trypsin.
(§4) Compound TP-1, Compound TP-3, or Compound TP-4 (which can be prepared as described in the examples herein) were incubated in the absence or presence of Compound 109 as shown in Table 8. Incubations and analysis procedures were as described in Example 14.

Series [2] deals with T2, trypsin from bovine pancreas (Bos taurus, UniProt P00760).
T2 construct: purchased Sigma-Aldrich T8003; host or cells: bovine pancreas
T2 sequence (P00760 24-246): T1 sequence (P00760 24-246)
Described as above. It counts as biochemical. The note with it: 4815 BAEE U trypsin/mL. The protocol: as §1, §2, §3, §4

Series [3] is described as follows: Pharmacokinetics following PO administration to dogs. It counts as in vivo, dog. The following applies: approximately equimole amounts. The protocol: Purebred male young adult/adult beagles were fasted overnight. Compound TP-1 (which can be prepared as described in the examples herein) or tapentadol (which can be prepared as described in PCT patent application No. WO28012046A1) were administered in approximately equimole amounts in water via oral gavage followed immediately by flushing the gavage tube with 5 mL water prior to withdrawal. Blood was collected from each animal predose and following dose administration at 0.25, 0.5, 1, 2, 3, 4, 6, 8, 10, 12 and 24 hours postdose. Blood samples were centrifuged and 0.8 mL plasma transferred to fresh tubes containing 8 μl formic acid; samples were vortexed, then immediately placed in dry ice and stored in a −80° C. freezer until analysis by HPLC/MS.
Table 5 and FIG. 6 provide tapentadol exposure results for dogs administered Compound TP-1 or tapentadol. Results in Table 5 are reported for each group of four dogs as described in Example 11.

A short description of series [4]: Plasma and cerebrospinal fluid penetration following IV administration to rats. It counts as in vivo, rat. The following applies: for concentration at 2 min: male, Sprague Dawley, rat, in vivo, TP-1 10 mg/kg, tapentadol 4 mg/kg. The protocol: Compound TP-1 (which can be prepared as described in the examples herein) at a dose of 10 mg/kg, or tapentadol, at a dose of 4 mg/kg, were dissolved in saline and injected into the tail vein of 4 male Sprague Dawley rats. These doses represent approximately equimole amounts. After 2 minutes, the rats were anesthetized by carbon dioxide asphyxiation, blood samples were drawn and harvested for plasma by centrifugation at 5,400 rpm at 4° C. for 5 min, and 100 μl plasma was transferred from each sample into a fresh tube containing 2 μl of 50% formic acid. The CSF fluid was collected using a 22×1 inch gauge needle connected to polyurethane catheter type MRE-040 tubing (Braintree Scientific, Inc., Braintree, Mass.). The needle was inserted just below the nuchal crest at the area of the foramen magnum, and clear CSF fluid was collected into the catheter and transferred into a collection tube. The CSF samples were centrifuged at 5,400 rpm at 4° C. for 5 min, and 100 μl CSF fluid was transferred from each sample into a fresh tube. The plasma and CSF samples were immediately placed in dry ice and then stored in a −80° C. freezer until analysis by high performance liquid chromatography/mass spectrometry (HPLC/MS). In order to study Compound TP-1 and tapentadol plasma and CSF penetration over time, additional groups of 4 rats were administered compounds as described above and anesthetized at specified time points. Plasma and CSF were collected and analyzed as described above.
Results in Table 14 are reported, for each group of four rats, as mean concentrations of the indicated compounds in plasma or CSF. Table 14 also provides the plasma-to-CSF (plasma/CSF) partitioning coefficient, i.e., the ratio of concentration in the plasma to concentration in the CSF of the indicated compounds.

Series [5] can be described thus: In vitro stability of Compound TP-1 to household chemicals and enzyme preparations. It counts as physicochemical. The protocol:
Compound TP-1 (which can be prepared as described in the examples herein) was exposed at room temperature (RT) or 80° C. for either 1 or 24 hours (hr) to the following household chemicals: vodka (40% alcohol), baking soda (saturated sodium bicarbonate solution, pH 9), WINDEX® with Ammonia-D (pH 11) and vinegar (5% acetic acid). Compound TP-1 was also exposed to the following enzyme-containing compositions at RT for 1 or 24 hr: GNC® Super Digestive (2 capsules of GNC Super Digestive Enzymes dissolved in 5 mL of water), tenderizer (Adolf's meat tenderizer, primarily papain, dissolved in water to a concentration of 0.123 g/mL to approximate the concentration of a marinade given on the bottle label), and subtilisn (8 tablets of ULTRAZYME® contact lens cleaner (Advanced Medical Optics, Milpitas, Calif.) dissolved in 4 mL water). Samples were incubated as described and aliquots removed at 1 hr and 24 hr and stabilized by adding each to a solution of 50% or 100% of 85% phosphoric acid solution to achieve a final pH of less than or equal to pH 4. The stabilized aliquots were then diluted 4- to 6-fold with water, vortex-mixed and applied to HPLC.
The solid black bars indicate the percentage of Compound TP-1 remaining after exposure, and the lightly shaded bars with a black outline indicate the percentage conversion of Compound TP-1 to tapentadol.

Like-named read-outs stand apart in the source and are kept apart here.

By half-life is commonly meant the time needed for the level to fall by half in the phase considered. As for `CC[C@@H](c1cccc(OC(=O)N(C)CCNC(=O)[C@H](CCCNC(=N)N)NC(=O)CC(=O)O)c1)[C@@H](C)CN(C)C` [Compound TP-1, N—[(S)-1-(2-{[3-((1R,2R)-3-dimethylamino-1-ethyl-2-methyl-propyl)-phenoxycarbonyl]-methyl-amino}-ethylcarbamoyl)-4-guanidino-butyl]-malonamic acid], the half-life at 0.761 nM in series [1] is 3.94 ± 0.18 h. For the same compound, the “Rate of TP formation, Average ± sd” value in series [2] (Table 4, Compound 109 0 μM) is recorded as 0.0302 ± 0.002 umol/h/BAEE U; in series [2] (Table 4, Compound 109 2 μM) it was 0.0243 ± 0.0008 umol/h/BAEE U; in series [2] (Table 8, Compound 109 0 μM) it was 0.0302 ± 0.002 umol/h/BAEE U; in series [2] (Table 8, Compound 109 2 μM), 0.0243 ± 0.0008 umol/h/BAEE U. In series [3], the “tapentadol PK profile compared to administration of tapentadol” value was “delayed Tmax and increased AUC”. In series [4] (671/10.4), the “relative plasma/CSF partitioning coefficient of Compound TP-1 to tapentadol (fold less CSF-penetrant)” value was “about 64 fold”. The concentration at 2 min in series [4] (rats, IV, 2 minutes after dosing, read-out: Compound conc. in CSF) came out at 65.3 ng/mL; in series [4] (rats, IV, 2 minutes after dosing, read-out: Compound conc. in Plasma), 43800 ng/mL. Besides, the Plasma/CSF partitioning coefficient in series [4] (rats, IV, 2 minutes after dosing, ratio of concentration in plasma to concentration in CSF) was 671. Moreover, the conversion to tapentadol result is “less than 10%” in series [5] (all other conditions (household chemicals at RT or 80° C., enzyme preparations at RT, 1 or 24 hr)) and 10-20% in series [5] (sodium bicarbonate at 80° C. or Windex at 80° C. for 24 hr).
